We go through eleven molecules from patent publication US4707488A, “Dopamine-β-hydroxylase inhibitors and use thereof” (Smithkline Beckman Corporation, priority 1985, dated 1987).

The target in series [1] is T1, DBH (Bos taurus, UniProt P15101).
T1 sequence (P15101 1-610): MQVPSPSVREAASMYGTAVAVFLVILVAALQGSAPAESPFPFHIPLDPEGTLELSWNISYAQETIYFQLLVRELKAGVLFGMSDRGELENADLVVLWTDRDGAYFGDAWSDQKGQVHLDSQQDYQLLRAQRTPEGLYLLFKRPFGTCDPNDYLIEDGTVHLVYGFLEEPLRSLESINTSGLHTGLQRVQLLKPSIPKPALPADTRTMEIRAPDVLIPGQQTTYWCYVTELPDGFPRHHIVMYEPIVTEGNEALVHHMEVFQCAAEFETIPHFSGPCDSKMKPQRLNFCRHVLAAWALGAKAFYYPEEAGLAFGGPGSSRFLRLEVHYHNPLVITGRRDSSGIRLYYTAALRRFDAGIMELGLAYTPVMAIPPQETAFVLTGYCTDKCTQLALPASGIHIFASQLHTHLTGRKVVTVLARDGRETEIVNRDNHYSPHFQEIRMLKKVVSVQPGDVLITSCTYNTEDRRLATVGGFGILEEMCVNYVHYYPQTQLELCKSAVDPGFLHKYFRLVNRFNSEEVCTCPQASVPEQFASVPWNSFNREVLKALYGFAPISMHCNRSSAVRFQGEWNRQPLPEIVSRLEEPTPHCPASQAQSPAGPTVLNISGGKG
The series can be described thus: in vitro DBH inhibition, conversion of tyramine to octopamine. Type of series: biochemical. As to the method: Compounds of the invention and other compounds useful in the method of the invention were screened for in vitro DBH inhibition by a standard procedure for assaying conversion of tyramine to octopamine in the presence of DBH. Octopamine was assayed following sodium periodate oxidation to p-hydroxybenzaldehyde by measuring spectrophotometric absorbance at 330 nm. Inhibition is given in molar concentration of compound at which DBH activity was halved (IC50). Melting points (mp) are given in °C. By this procedure fusaric acid has an IC50 of about 8×10^-7.

Series [2] has as its system peripheral dopamine (DA) and norepinephrine (NE) levels. Nature of the series: in vivo effects on peripheral dopamine (DA) and norepinephrine (NE) levels. On the set-up: species or system Spontaneously hypertensive rats. The note with it: dosed twice about 18 hours apart, sacrificed about 2 hours after second dose. The protocol: (§1) Various compounds of the invention were tested for their effects in vivo on peripheral dopamine (DA) and norepinephrine (NE) levels substantially by the procedure of DaPrada and Zurcher, Life Sci., 19, 1161, (1976). Spontaneously hypertensive rats were dosed twice, the second dose being about 18 hours after the first, and were sacrificed about 2 hours after the second dose.

The nature of series [3]: mean arterial blood pressure, indwelling cannulae inserted into the tail artery. Type of series: in vivo, Spontaneously hypertensive rats. The note with it: 50 mg/kg, ip. The protocol: as §1
Further, the same rats were dosed with a suspension or solution at a dose of 50 mg/kg of test compound i.p. and mean arterial blood pressure was determined with indwelling cannulae inserted into the tail artery.

The conditions of series [4]: Teresawa et al., Japan Cir. J. 35, 339 (1971); cited from earlier work.
[5] abbreviates: octopamine assayed after periodate oxidation, absorbance at 330 nm, read-out: IC50 (molar concentration of compound at which DBH activity was halved).

Each structure is given as a SMILES string. Read-outs that look alike come from different tables or passages of the source.

For `Fc1cc(F)cc(Cn2nnnc2S)c1` [Example 1, 1-(3,5-Difluorobenzyl)-5-mercaptotetrazole], the IC50 in series [1] (setting [5]) amounted to 1500 nM. Regarding `Sc1nnnn1Cc1cc(Cl)cc(Cl)c1` [Example 2, 1-(3,5-Dichlorobenzyl)-5-mercaptotetrazole], the IC50 in series [1] (setting [5]) came to 1000 nM. Also, the “DA/NE Ratio” value in series [2] was 0.053 ± 0.0035. In addition, in series [2] (micrograms per gram of tissue), the DA was found to be 0.360 ± 0.015 µg/g and the NE worked out at 6.838 ± 0.257 µg/g. For the same molecule, the “reduction in mean arterial pressure” value in series [3] is listed as “significant reduction in mean arterial pressure”. On to `Sc1nnnn1Cc1c(Cl)cccc1Cl` [Example 3, 1-(2,6-Dichlorobenzyl)-5-mercaptotetrazole], for which the IC50 in series [1] (setting [5]) is 9200 nM.

Take `COc1ccc(Cn2nnnc2S)cc1` [Example 4, 1-(4-Methoxybenzyl)-5-mercaptotetrazole]: in series [1] (setting [5]), the IC50 was determined as 15000 nM. The same measure, in the same setting: the value for `Sc1nnnn1CCCc1ccccc1` [Example 5, 1-(3-Phenylpropyl)-5-mercaptotetrazole] was 2400 nM.

Regarding `Sc1nnnn1Cc1ccccc1` [Example 6, 1-Benzyl-5-mercaptotetrazole], the IC50 in series [1] (setting [5]) turned out to be 13000 nM. For the same molecule, the “reduction in mean arterial pressure” value in series [3] is recorded as “significant reduction in mean arterial pressure”.

Turning to `Fc1cc(F)cc(CCCn2nnnc2S)c1` [Example 7, 1-(3-(3,5-Difluorophenyl)propyl)-5-mercaptotetrazole], the IC50 in series [1] (setting [5]) is 350 nM. Still for that read-out and setting: under `Sc1nnnn1CCCc1cc(Cl)cc(Cl)c1` [Example 9, 1-(3-(3,5-Dichlorophenyl)propyl)-5-mercaptotetrazole] stands 390 nM; under `Oc1ccc(CCCn2nnnc2S)cc1` [Example 11, 1-(3-(4-Hydroxyphenyl)propyl)-5-mercaptotetrazole], 790 nM; under `Oc1c(F)cc(CCCn2nnnc2S)cc1F` [Example 12, 1-(3-(3,5-Difluoro-4-hydroxyphenyl)propyl)-5-mercaptotetrazole], 80 nM. Turning to `CCCCc1ccc(C(=O)O)nc1` [Fusaric acid, fusaric acid, reference compound], the IC50 in series [1] was ~800 nM. Further, the hepatotoxicity entry in series [4] was “hepatotoxic”.
